Molecules are shown by their SMILES.

One experiment deals with T1, Human αvβ3 (Homo sapiens, UniProt P05106+P06756).
T1 construct: purchased Chemicon International Inc., Temecula, Calif
Description: In vitro solid phase purified αvβ3 binding assay (vitronectin/αvβ3). As to conditions: vitronectin binding to immobilized αvβ3; read-out: αvβ3 IC50. As for the experimental part: In Vitro Solid Phase Purified αvβ3 Binding Assay
The vitronectin/αvβ3 binding assay methods were derived from Mehta et al. (Biochem J. 1998, 330, 861). Human αvβ3 (Chemicon International Inc., Temecula, Calif.), at a concentration of 1 μg/ml dissolved in Tris buffer (20 mM Tris, 1 mM CaCl2, […], 10 μM MnCl2, 150 mM NaCl), was immobilized on Immulon 96 well plates (Dynex Technologies, Chantilly, Va.) overnight at 4° C. Plates were washed and treated with blocking buffer (3% BSA in Tris buffer) for 2 h at 37° C. Plates were then rinsed 2 times with Tris buffer containing 0.3% BSA and 0.2% Tween20 (polyoxyethylenesorbitan monolaurate). Five minutes prior to the addition of 5 nM vitronectin (Sigma, St. Louis, Mo.), synthesized compounds were added to wells in duplicate. Each plate included c-RGDfV as an internal control. Following a 3 hour incubation at 37° C., plates were washed 5 times in assay buffer. An anti-human vitronectin IgG rabbit polyclonal antibody (Calbiochem, San Diego, Calif.) was added (1:2000) and plates were incubated for 1 hour at room temperature. VectaStain ABC peroxidase kit reagents (Vector Laboratories, Burlingame, Calif.) employing a biotin labeled anti-rabbit IgG, were utilized for detection of bound antibody. Plates were read at 490 nm on a Molecular Devices (Sunnyvale, Calif.) microplate reader.

Experiment [1] has as its target RGD-affinity purified GPIIb/IIIa (Homo sapiens, UniProt P05106+P08514). Description: In vitro solid phase purified GPIIb/IIIa binding assay (biotinylated fibrinogen). As to conditions: fibrinogen binding to immobilized GPIIb/IIIa; read-out: IIb/IIIa IC50. As for the experimental part: In Vitro Solid Phase Purified GP IIB/IIIA Binding Assay
The plate was covered and incubated overnight at 4° C. The GPIIb/IIIa solution was discarded and 150 μl of 5% BSA was added and incubated at RT for 1-3 h. The plate was washed extensively with modified Tyrodes buffer. Biotinylated fibrinogen (25 μl/well) at 2× final concentration was added to the wells that contain the test compounds (25 μl/well). The plate was covered and incubated at RT for 2-4 h. Twenty minutes prior to incubation completion, one drop of Reagent A (VectaStain ABC Horse Radish Peroxidase kit, Vector Laboratories, Inc.) and one drop Reagent B were added with mixing to 5 mL modified Tyrodes buffer mix and let stand. The ligand solution was discarded and the plate washed (5×200 μl/well) with modified Tyrodes buffer. Vecta Stain HRP-Biotin-Avidin reagent (50 μl/well, as prepared above) was added and incubated at RT for 15 min. The Vecta Stain solution was discarded and the wells washed (5×200 μl/well) with modified Tyrodes buffer. Developing buffer (10 mL of 50 mM citrate/phosphate buffer @ pH 5.3, 6 mg o-phenylenediamine, 6 μl 30% H2O2; 50 μl/well) was added and incubated at RT for 3-5 min, and then 2 NH2SO4 (50 μl/well) was added. The absorbance was read at 490 nm.

T1 sequence (P06756 31-889 limits assumed): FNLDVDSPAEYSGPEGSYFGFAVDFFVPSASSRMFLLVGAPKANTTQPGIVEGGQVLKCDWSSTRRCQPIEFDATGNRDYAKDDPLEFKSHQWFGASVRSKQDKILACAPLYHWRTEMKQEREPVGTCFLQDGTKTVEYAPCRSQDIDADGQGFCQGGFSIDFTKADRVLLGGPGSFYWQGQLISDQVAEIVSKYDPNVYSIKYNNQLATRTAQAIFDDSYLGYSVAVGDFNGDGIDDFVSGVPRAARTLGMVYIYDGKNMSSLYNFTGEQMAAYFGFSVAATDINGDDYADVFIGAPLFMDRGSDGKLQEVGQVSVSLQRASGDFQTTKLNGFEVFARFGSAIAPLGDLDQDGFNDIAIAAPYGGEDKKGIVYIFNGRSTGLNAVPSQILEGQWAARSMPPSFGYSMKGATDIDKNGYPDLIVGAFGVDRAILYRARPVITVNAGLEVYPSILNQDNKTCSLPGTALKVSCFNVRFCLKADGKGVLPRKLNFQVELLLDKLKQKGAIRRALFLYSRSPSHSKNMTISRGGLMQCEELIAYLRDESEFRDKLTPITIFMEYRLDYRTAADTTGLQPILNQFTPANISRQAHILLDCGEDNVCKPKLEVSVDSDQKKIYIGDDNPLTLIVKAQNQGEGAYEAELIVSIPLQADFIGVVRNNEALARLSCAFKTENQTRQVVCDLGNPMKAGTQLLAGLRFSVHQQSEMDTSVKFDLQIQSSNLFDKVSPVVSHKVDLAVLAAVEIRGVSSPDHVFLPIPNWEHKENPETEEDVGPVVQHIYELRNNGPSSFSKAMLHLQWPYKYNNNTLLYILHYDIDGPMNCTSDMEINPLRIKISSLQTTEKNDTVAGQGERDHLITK
T1 sequence (P06756 891-1048 partner limits assumed): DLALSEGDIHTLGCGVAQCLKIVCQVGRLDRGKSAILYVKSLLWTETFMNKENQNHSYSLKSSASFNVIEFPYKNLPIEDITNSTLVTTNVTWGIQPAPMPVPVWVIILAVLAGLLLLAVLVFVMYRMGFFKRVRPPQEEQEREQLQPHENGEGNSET
T1 sequence (P05106 27-788): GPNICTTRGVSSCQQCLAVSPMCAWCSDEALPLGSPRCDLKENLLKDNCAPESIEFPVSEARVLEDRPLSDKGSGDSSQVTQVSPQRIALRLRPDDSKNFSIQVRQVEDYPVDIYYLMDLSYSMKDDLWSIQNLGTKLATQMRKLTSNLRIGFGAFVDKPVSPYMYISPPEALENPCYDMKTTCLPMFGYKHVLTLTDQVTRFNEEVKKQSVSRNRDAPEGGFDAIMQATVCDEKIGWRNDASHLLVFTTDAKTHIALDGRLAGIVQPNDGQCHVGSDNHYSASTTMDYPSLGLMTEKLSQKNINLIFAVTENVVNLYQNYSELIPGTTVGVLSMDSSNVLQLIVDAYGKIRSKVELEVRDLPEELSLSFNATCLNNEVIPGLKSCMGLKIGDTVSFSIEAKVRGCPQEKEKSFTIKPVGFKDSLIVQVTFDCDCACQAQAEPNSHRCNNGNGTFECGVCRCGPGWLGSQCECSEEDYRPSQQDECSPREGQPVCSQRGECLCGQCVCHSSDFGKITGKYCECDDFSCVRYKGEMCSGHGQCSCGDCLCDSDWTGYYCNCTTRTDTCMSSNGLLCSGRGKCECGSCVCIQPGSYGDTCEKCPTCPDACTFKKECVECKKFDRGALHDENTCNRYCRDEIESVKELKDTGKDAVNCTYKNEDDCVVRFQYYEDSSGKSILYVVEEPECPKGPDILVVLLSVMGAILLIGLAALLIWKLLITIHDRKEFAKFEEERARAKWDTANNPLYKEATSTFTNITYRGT
Sequence of RGD-affinity purified GPIIb/IIIa (P08514 32-887 limits assumed): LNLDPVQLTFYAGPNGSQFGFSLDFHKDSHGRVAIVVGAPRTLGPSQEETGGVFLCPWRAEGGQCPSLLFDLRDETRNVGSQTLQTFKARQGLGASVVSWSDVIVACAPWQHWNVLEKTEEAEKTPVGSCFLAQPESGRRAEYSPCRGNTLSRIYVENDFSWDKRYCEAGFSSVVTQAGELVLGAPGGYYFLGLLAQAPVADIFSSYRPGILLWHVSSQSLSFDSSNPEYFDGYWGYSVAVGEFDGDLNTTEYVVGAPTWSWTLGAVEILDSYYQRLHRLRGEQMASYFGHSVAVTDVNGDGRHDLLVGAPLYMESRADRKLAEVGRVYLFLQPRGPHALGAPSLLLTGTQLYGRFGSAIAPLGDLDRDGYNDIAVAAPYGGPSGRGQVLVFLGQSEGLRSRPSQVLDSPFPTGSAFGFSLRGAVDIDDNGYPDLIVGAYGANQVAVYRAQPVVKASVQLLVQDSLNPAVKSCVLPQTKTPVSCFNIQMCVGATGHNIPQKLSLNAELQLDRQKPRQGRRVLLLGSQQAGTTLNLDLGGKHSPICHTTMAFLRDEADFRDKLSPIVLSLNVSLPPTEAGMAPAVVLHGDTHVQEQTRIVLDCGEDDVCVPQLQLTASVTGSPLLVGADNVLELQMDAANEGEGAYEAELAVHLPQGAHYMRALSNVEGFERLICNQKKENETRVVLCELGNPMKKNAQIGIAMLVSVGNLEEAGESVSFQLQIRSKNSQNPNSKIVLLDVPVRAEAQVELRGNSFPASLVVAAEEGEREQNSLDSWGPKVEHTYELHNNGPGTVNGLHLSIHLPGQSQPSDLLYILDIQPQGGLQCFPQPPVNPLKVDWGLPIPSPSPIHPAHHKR
Sequence of RGD-affinity purified GPIIb/IIIa (P08514 891-1039 partner limits assumed): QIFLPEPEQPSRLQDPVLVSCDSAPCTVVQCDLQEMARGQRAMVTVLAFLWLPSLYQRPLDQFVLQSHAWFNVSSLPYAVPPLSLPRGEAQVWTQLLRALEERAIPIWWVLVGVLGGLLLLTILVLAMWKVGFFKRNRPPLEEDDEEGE
Sequence of RGD-affinity purified GPIIb/IIIa (P05106 27-788): as the sequence (P05106 27-788) above

As for `O=C(O)C[C@H](NC(=O)C1CCN(C(=O)CC2(CNC3=NCCN3)CCCCC2)CC1)c1ccc(Cl)nc1` [Compound 19], the IC50 was 320 nM at Human αvβ3 and 71 nM in experiment [1].

As to `O=C(O)CC(NC(=O)C1CCN(C(=O)OCCNC2=NCCN2)CC1)c1ccc2c(c1)OCO2` (stereo not shown) [Compound 29], the IC50 turned out to be 34 nM on Human αvβ3 and 210 nM in experiment [1].

In the case of `O=C(O)C[C@H](NC(=O)C1CCN(C(=O)OCCNC2=NCCN2)CC1)c1cnc2ccccc2c1` [Compound 39, β-[[[1-[[2-[(4,5-dihydro-1H-imidazol-2-yl)amino]ethoxy]carbonyl]-4-piperidinyl]carbonyl]amino]-, (β^3S)-3-quinolinepropanoic acid], the IC50 on Human αvβ3 amounted to 2.3 nM; in experiment [1], 36 nM.

In the case of `O=C(O)CC(NC(=O)C1CCN(C(=O)CCCNC2=NCCN2)CC1)c1cc(F)cc(F)c1` (stereo not shown) [Compound 38], the IC50 on Human αvβ3 was greater than 300 nM; in experiment [1], 3300 nM.

Turning to `O=C(N[C@@H](CNC(=O)C1CCN(C(=O)c2ccc(CNC3=NCCN3)cc2)CC1)C(=O)O)OCc1ccccc1` [Compound 53, 3-[[[1-[4-[[(4,5-dihydro-1H-imidazol-2-yl)amino]methyl]benzoyl]-4-piperidinyl]carbonyl]amino]-N-[(phenylmethoxy)carbonyl]-L-alanine], the IC50 at Human αvβ3 stood at 570 nM; in experiment [1], 1.5 nM.

As for `O=C(N[C@@H](CNC(=O)C1CCN(C(=O)NCCCn2ccnc2)CC1)C(=O)O)OCc1ccccc1` [Compound 10], the IC50 at Human αvβ3 is greater than 50000 nM; in experiment [1] it was 950 nM.

As to `O=C(O)CC(NC(=O)C1CCN(C(=O)CCCNC2=NCCN2)CC1)c1ccc2c(c1)CCO2` (stereo not shown) [Compound 23], the results for the IC50 (on Human αvβ3; in experiment [1]) were greater than 500 nM and 7300 nM, respectively.

Take `COC(=O)[C@H](CNC(=O)C1CCN(C(=O)CCCNC2=NCCN2)CC1)NC(=O)OCc1ccccc1` [Compound 42]: the IC50 at Human αvβ3 is 170 nM; in experiment [1], 140 nM.

Take `O=C(O)CC(NC(=O)C1CCN(C(=O)CCCNC2=NCCN2)CC1)c1ccc2ccccc2c1` (stereo not shown) [Compound 37]: the figures for the IC50 (at Human αvβ3; in experiment [1]) were 290 nM and 1700 nM, respectively.

Take `O=C(O)C[C@H](NC(=O)C1CCN(C(=O)OCCNC2=NCCN2)CC1)c1cccnc1` [Compound 40]: the IC50 on Human αvβ3 stood at 12 nM; in experiment [1] it was 1100 nM.

For the molecule `O=C(N[C@@H](CNC(=O)C1CCN(C(=O)CCc2nc3ccccc3[nH]2)CC1)C(=O)O)OCc1ccccc1` [Compound 8], the IC50 at Human αvβ3 was found to be 550 nM; in experiment [1], 1100 nM.

With `O=C(N[C@H](CNC(=O)C1CCN(C(=O)CCCNC2=NCCS2)CC1)C(=O)O)OCc1ccccc1` [Compound 57], the IC50 on Human αvβ3 worked out at 350 nM; in experiment [1], 130 nM.

Take `O=C(O)CC(NC(=O)C1CCN(C(=O)CCCNC2=NCCN2)CC1)c1ccc2c(c1)OCO2` (stereo not shown) [Compound 21]: the IC50 on Human αvβ3 amounted to 23 nM; in experiment [1], 410 nM.

Take `O=C(O)CC(NC(=O)C1CCN(C(=O)CCONC2=NCCN2)CC1)c1ccc2c(c1)OCO2` (stereo not drawn) [Compound 61, β-[[[1-[3-[[(4,5-dihydro-1H-imidazol-2-yl)amino]oxy]-1-oxopropyl]-4-piperidinyl]carbonyl]amino]-1,3-benzodioxole-5-propanoic acid]: the IC50 at Human αvβ3 amounted to 180 nM; in experiment [1], 2700 nM.

For `O=C(O)CC(NC(=O)C1CCN(C(=O)C2CCNCC2)CC1)c1cnc2ccccc2c1` (stereo not shown) [Compound 9], the values for the IC50 (at Human αvβ3; in experiment [1]) were 30000 nM and 300 nM, respectively.

Turning to `C[C@H](CC(=O)O)NC(=O)C1CCN(C(=O)CCCNC2=NCCN2)CC1` [Compound 4, 3-[[[1-[4-[(4,5-dihydro-1H-imidazol-2-yl)amino]-1-oxobutyl]-4-piperidinyl]carbonyl]amino]-, (3R)-butanoic acid], the values for the IC50 (on Human αvβ3; in experiment [1]) were 150 nM and 1700 nM, respectively.

As for `O=C(NCCCC(=O)N1CCC(C(=O)NC[C@H](NC(=O)OCc2ccccc2)C(=O)O)CC1)NCc1ccccc1` [Compound 59], the IC50 on Human αvβ3 turned out to be 160 nM; in experiment [1] it was 510 nM.

`CC(CCNC1=NCCN1)C(=O)N1CCC(C(=O)N[C@@H](CC(=O)O)Cc2ccccc2)CC1` (stereo partly shown) [Compound 48]: the IC50 on Human αvβ3 was determined as 510 nM; in experiment [1], 1100 nM.

Turning to `O=C(O)CC(NC(=O)C1CCN(C(=O)CCCNC2=NCCN2)CC1)c1cccc(C(F)(F)F)c1` (stereo not shown) [Compound 27], the IC50 is greater than 500 nM at Human αvβ3 and 13000 nM in experiment [1].

For `O=C(O)CC(NC(=O)C1CCN(C(=O)CCCNC2=NCCN2)CC1)c1cccc2ccccc12` (stereo not shown) [Compound 36], the IC50 at Human αvβ3 was greater than 300 nM; in experiment [1], 12000 nM.

Consider `O=C(O)CC(NC(=O)C1CCN(C(=O)CCc2nc3ccccc3[nH]2)CC1)c1ccc2c(c1)OCCO2` (stereo not shown) [Compound 13], for which the IC50 is 10000 nM on Human αvβ3 and 29000 nM in experiment [1].

Turning to `Cc1cccnc1NCCCC(=O)N1CCC(C(=O)NC[C@H](NC(=O)OCc2ccccc2)C(=O)O)CC1` [Compound 41], the IC50 at Human αvβ3 is greater than 300 nM; in experiment [1], 110 nM.

Consider `O=C(O)C[C@H](NC(=O)C1CCN(C(=O)CCCNC2=NCCN2)CC1)c1ccc(Cl)nc1` [Compound 3, 6-chloro-β-[[[1-[4-[(4,5-dihydro-1H-imidazol-2-yl)amino]-1-oxobutyl]-4-piperidinyl]carbonyl]amino]-, (β^3S)-3-pyridinepropanoic acid], for which the results for the IC50 (at Human αvβ3; in experiment [1]) were 28 nM and 130 nM, respectively.

With `Cc1cccc(C(CC(=O)O)NC(=O)C2CCN(C(=O)CCCNC3=NCCN3)CC2)c1` (stereo not shown) [Compound 22], the IC50 is greater than 500 nM at Human αvβ3 and 38000 nM in experiment [1].

Regarding `COc1cc(OC)cc(C(CC(=O)O)NC(=O)C2CCN(C(=O)CCCNC3=NCCN3)CC2)c1` (stereo not shown) [Compound 24], the IC50 on Human αvβ3 is 64 nM; in experiment [1], 2200 nM.

`O=C(O)CC(NC(=O)C1CCN(C(=O)CCCNC2=NCCN2)CC1)c1cccc(F)c1` (stereo not shown) [Compound 32]: the IC50 is 120 nM on Human αvβ3 and 3600 nM in experiment [1].

Turning to `O=C(O)CC(NC(=O)C1CCN(C(=O)CCc2nc3ccccc3[nH]2)CC1)c1cccc2ccccc12` (stereo not shown) [Compound 15], the results for the IC50 (at Human αvβ3; in experiment [1]) were greater than 5000 nM and 17000 nM, respectively.

As for `O=C(O)CC(NC(=O)C1CCN(C(=O)OCCNC2=NCCN2)CC1)c1cc(F)cc(F)c1` (stereo not shown) [Compound 35], the IC50 at Human αvβ3 amounted to 140 nM; in experiment [1] it was 1600 nM.

On to `O=C(O)C[C@H](NC(=O)C1CCN(C(=O)CCCNC2=NCCN2)CC1)c1cccnc1` [Compound 33], for which the figures for the IC50 (on Human αvβ3; in experiment [1]) were 19 nM and 1800 nM, respectively.

Regarding `O=C(N[C@@H](CNC(=O)C1CCN(C(=O)CC(CNC2=NCCN2)c2ccc(Cl)cc2)CC1)C(=O)O)OCc1ccccc1` (stereo partly shown) [Compound 18], the IC50 turned out to be 50 nM on Human αvβ3 and 15 nM in experiment [1].

Take `O=C(O)CC(NC(=O)C1CCN(C(=O)OCCNC2=NCCN2)CC1)c1cccnc1` (stereo not shown) [Compound 31]: the IC50 amounted to 29 nM on Human αvβ3 and 4200 nM in experiment [1].

As to `O=C(N[C@@H](CNC(=O)C1CCN(C(=O)CCNC2=NCCN2)CC1)C(=O)O)OCc1ccccc1` [Compound 12], the IC50 on Human αvβ3 turned out to be 20 nM; in experiment [1], 14 nM.

As for `NCCCC(=O)N1CCC(C(=O)NC[C@H](NC(=O)OCc2ccccc2)C(=O)O)CC1` [Compound 56], the IC50 was greater than 5000 nM at Human αvβ3 and 49 nM in experiment [1].

In the case of `CC(CNC1=NCCN1)C(=O)N1CCC(C(=O)N[C@@H](CC(=O)O)c2cnc3ccccc3c2)CC1` (stereo partly drawn) [Compound 5, β-[[[1-[3-[(4,5-dihydro-1H-imidazol-2-yl)amino]-2-methyl-1-oxopropyl]-4-piperidinyl]carbonyl]amino]-, (β^3S)-3-quinolinepropanoic acid], the figures for the IC50 (on Human αvβ3; in experiment [1]) were 15 nM and 23 nM, respectively.

As to `CC(CCNC1=NCCN1)C(=O)N1CCC(C(=O)NC[C@H](NC(=O)OCc2ccccc2)C(=O)O)CC1` (stereo partly drawn) [Compound 47, 3-[[[1-[4-[(4,5-dihydro-1H-imidazol-2-yl)amino]-2-methyl-1-oxobutyl]-4-piperidinyl]carbonyl]amino]-N-[(phenylmethoxy)carbonyl]-L-alanine], the values for the IC50 (on Human αvβ3; in experiment [1]) were 4 nM and 28 nM, respectively.
